Where no end group is shown, it is not given here.
Experiments:
recombinant human GzmB = target: T1, recombinant human GzmB (Homo sapiens, UniProt P10144); test: Kinetic measurements (Michaelis-Menten) with recombinant hGzmB; format: biochemical; parameters: cleavage rate of H5 by hGzmB: unit not given here
T1 construct: For active GzmB vs pro-GzmB, p < 0.0001
Procedure: Fluorescence-based assays with different enzymes were performed in the appropriate buffers. […] In experiments with Ac-IEPD-CHO (50 μM), the inhibitor was preincubated for 1 h with GzmB before the addition of any probe.
Supplementary Table 4. Kinetic values determined for hexapeptides H2-H5 against
Probe Sequence kcat kcat / KM

hGzmB = test: Limit of detection of hGzmB by probe fluorescence; format: biochemical, human; conditions: H5 25 μM, 37 °C, emission 530 nm, no washing steps (Fig. S4)
Procedure: Supplementary Figure 1. Reactivity of fluorogenic substrates against human GzmB and limits of detection. a) Reaction conversion rates (by HPLC-UV detection at 350 nm) for Ac-IEPD-AMC (50 μM) in TRIS buffer (see Methods) at 37 °C containing different concentrations of hGzmB. Data presented as mean values±SEM (n=3 independent biological experiments). b) Reaction conversion rates (by HPLC-UV detection at 500 nm) for the tetrapeptide T1 (25 μM) in TRIS buffer at 37 °C containing different concentrations of hGzmB. Data presented as mean values±SEM (3 independent biological experiments).
Source data provided as a Source Data file.
(1 picture or pasted object on this page, not shown here)
Supplementary Figure 4. Comparative enzyme selectivity and limit of detection for […]
Ac-IEPD-AMC (all at 25 μM) after incubation for 90 min at 37 °C with hGzmB (light gray bars), human caspase-3 (dark gray bars) and hGzmA (white bars) (all enzymes used at 20 nM). Data presented as mean values±SEM (n=3). Excitation wavelengths: 450 nm (for […]
450 nm (for Ac-IEPD-AMC). b) Limit of detection of hGzmB by fluorescence emission […]
presented as mean values±SD (2 independent experiments with 3 technical replicates).

recombinant mouse GzmB = test: Reactivity against recombinant mouse GzmB (fluorescence); format: biochemical; conditions: 25 μM, 90 min, 37 °C
Procedure: and H5m (both at 25 μM) after incubation for 90 min at 37 °C with recombinant mouse
pro-GzmB (100 nM) after pre-activation with mouse cathepsin C (5.5 μg mL-1) for 4 h.
Excitation/emission wavelengths: 450 nm /510 nm. Data presented as mean values±SEM
(3 independent experiments with 3 technical replicates). Source data provided as a […]

OVA-EL4 cancer cells = test: Time-course flow cytometry of OVA-EL4 cancer cells with OT-I CD8+ T cells; format: cell-based; parameters: unit not given here; conditions: H5 10 μM, Sytox Blue 1 μM
Text: Legends: viable (gray), H5-stained (green), apoptotic (red). […] Black arrows highlight T cells, yellow arrows highlight H5-stained intracellular GzmB puncta. […] Scale bar: 10 μm. f Flow cytometric analysis of OVA-EL4 cancer cells from experiments in e. Data as means ± SEM (n = 3). P-values from two-tailed t-tests. Source data (c, f) provided as a Source Data file.
We utilized CD8+ T cells expressing the OT-I transgenic receptor, which specifically targets cells presenting the OVA-derived […] antigen in the context of H-2kb and co-cultured them with […]-pulsed EL4 cancer cells (Fig. S11). T cells were counterstained with Cell Tracker Orange for ease of identification and incubated with probe H5 and the cell death marker Sytox Blue before time-lapse microscopy.

[1] = hGzmB 20 nM, 37 °C, Michaelis-Menten, n = 3

T1 sequence (P10144 21-247): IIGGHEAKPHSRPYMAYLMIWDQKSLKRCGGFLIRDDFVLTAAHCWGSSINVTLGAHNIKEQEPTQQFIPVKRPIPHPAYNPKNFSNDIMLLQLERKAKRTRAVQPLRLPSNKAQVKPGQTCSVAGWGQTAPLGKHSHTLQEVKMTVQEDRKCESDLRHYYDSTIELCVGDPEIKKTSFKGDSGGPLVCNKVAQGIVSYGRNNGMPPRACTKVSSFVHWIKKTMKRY

## IEPDAL [H5, FRET hexapeptide IEPDAL with BODIPY-FL fluorophore at the N-terminal end and Dabcyl quencher]
Recombinant human GzmB; Supplementary Table 4, recombinant human GzmB
  kcat: 117 s⁻¹
Recombinant human GzmB; [1]
  Km: 9.6 µM
  kcat: 117 s⁻¹
Recombinant human GzmB; hGzmB 20 nM, [H5] 1 uM, Data 1
  cleavage rate of H5 by hGzmB: 8.4
Recombinant human GzmB; hGzmB 20 nM, [H5] 1 uM, Data 2
  cleavage rate of H5 by hGzmB: 5.5
Recombinant human GzmB; hGzmB 20 nM, [H5] 1 uM, Data 3
  cleavage rate of H5 by hGzmB: 6.0
Recombinant human GzmB; hGzmB 20 nM, [H5] 5 uM, Data 1
  cleavage rate of H5 by hGzmB: 48.9
Recombinant human GzmB; hGzmB 20 nM, [H5] 5 uM, Data 2
  cleavage rate of H5 by hGzmB: 44.9
Recombinant human GzmB; hGzmB 20 nM, [H5] 5 uM, Data 3
  cleavage rate of H5 by hGzmB: 43.3
Recombinant human GzmB; hGzmB 20 nM, [H5] 7.5 uM, Data 1
  cleavage rate of H5 by hGzmB: 58.5
Recombinant human GzmB; hGzmB 20 nM, [H5] 7.5 uM, Data 2
  cleavage rate of H5 by hGzmB: 69.9
Recombinant human GzmB; hGzmB 20 nM, [H5] 7.5 uM, Data 3
  cleavage rate of H5 by hGzmB: 72.5
Recombinant human GzmB; hGzmB 20 nM, [H5] 10 uM, Data 1
  cleavage rate of H5 by hGzmB: 75.6
Recombinant human GzmB; hGzmB 20 nM, [H5] 10 uM, Data 2
  cleavage rate of H5 by hGzmB: 81.3
Recombinant human GzmB; hGzmB 20 nM, [H5] 10 uM, Data 3
  cleavage rate of H5 by hGzmB: 63.2
Recombinant human GzmB; hGzmB 20 nM, [H5] 12.5 uM, Data 1
  cleavage rate of H5 by hGzmB: 89.7
Recombinant human GzmB; hGzmB 20 nM, [H5] 12.5 uM, Data 2
  cleavage rate of H5 by hGzmB: 89.4
Recombinant human GzmB; hGzmB 20 nM, [H5] 12.5 uM, Data 3
  cleavage rate of H5 by hGzmB: 82.2
Recombinant human GzmB; hGzmB 20 nM, [H5] 15 uM, Data 1
  cleavage rate of H5 by hGzmB: 88.0
Recombinant human GzmB; hGzmB 20 nM, [H5] 15 uM, Data 2
  cleavage rate of H5 by hGzmB: 88.2
Recombinant human GzmB; hGzmB 20 nM, [H5] 15 uM, Data 3
  cleavage rate of H5 by hGzmB: 73.1
Recombinant human GzmB; hGzmB 20 nM, [H5] 17.5 uM, Data 1
  cleavage rate of H5 by hGzmB: 82.4
Recombinant human GzmB; hGzmB 20 nM, [H5] 17.5 uM, Data 2
  cleavage rate of H5 by hGzmB: 92.3
Recombinant human GzmB; hGzmB 20 nM, [H5] 17.5 uM, Data 3
  cleavage rate of H5 by hGzmB: 81.2
Recombinant human GzmB; hGzmB 20 nM, [H5] 20 uM, Data 1
  cleavage rate of H5 by hGzmB: 100.4
Recombinant human GzmB; hGzmB 20 nM, [H5] 20 uM, Data 2
  cleavage rate of H5 by hGzmB: 99.8
Recombinant human GzmB; hGzmB 20 nM, [H5] 20 uM, Data 3
  cleavage rate of H5 by hGzmB: 89.3
hGzmB
  LoD: 6 pM
Recombinant mouse GzmB
  response to mouse GzmB: good response
OVA-EL4 cancer cells; 0 h, Data 1
  H5+DAPI+ OVA-EL4 cancer cells: 0.47
  H5+DAPI- OVA-EL4 cancer cells: 1.17
  H5-DAPI+ OVA-EL4 cancer cells: 0.04
OVA-EL4 cancer cells; 0 h, Data 2
  H5+DAPI+ OVA-EL4 cancer cells: 0.46
  H5+DAPI- OVA-EL4 cancer cells: 0.35
  H5-DAPI+ OVA-EL4 cancer cells: 0.011
OVA-EL4 cancer cells; 0 h, Data 3
  H5+DAPI+ OVA-EL4 cancer cells: 0.43
  H5+DAPI- OVA-EL4 cancer cells: 0.23
  H5-DAPI+ OVA-EL4 cancer cells: 0.00
OVA-EL4 cancer cells; 1 h, Data 1
  H5+DAPI+ OVA-EL4 cancer cells: 0.60
  H5+DAPI- OVA-EL4 cancer cells: 1.57
  H5-DAPI+ OVA-EL4 cancer cells: 0.03
OVA-EL4 cancer cells; 1 h, Data 2
  H5+DAPI+ OVA-EL4 cancer cells: 0.80
  H5+DAPI- OVA-EL4 cancer cells: 1.83
  H5-DAPI+ OVA-EL4 cancer cells: 0.053
OVA-EL4 cancer cells; 1 h, Data 3
  H5+DAPI+ OVA-EL4 cancer cells: 0.49
  H5+DAPI- OVA-EL4 cancer cells: 1.53
  H5-DAPI+ OVA-EL4 cancer cells: 0.026
OVA-EL4 cancer cells; 2 h, Data 1
  H5+DAPI+ OVA-EL4 cancer cells: 0.82
  H5+DAPI- OVA-EL4 cancer cells: 3.01
  H5-DAPI+ OVA-EL4 cancer cells: 0.047
OVA-EL4 cancer cells; 2 h, Data 2
  H5+DAPI+ OVA-EL4 cancer cells: 0.66
  H5+DAPI- OVA-EL4 cancer cells: 2.90
  H5-DAPI+ OVA-EL4 cancer cells: 0.06
OVA-EL4 cancer cells; 2 h, Data 3
  H5+DAPI+ OVA-EL4 cancer cells: 0.58
  H5+DAPI- OVA-EL4 cancer cells: 2.81
  H5-DAPI+ OVA-EL4 cancer cells: 0.038
OVA-EL4 cancer cells; 3 h, Data 1
  H5+DAPI+ OVA-EL4 cancer cells: 2.18
  H5+DAPI- OVA-EL4 cancer cells: 2.12
  H5-DAPI+ OVA-EL4 cancer cells: 0.05
OVA-EL4 cancer cells; 3 h, Data 2
  H5+DAPI+ OVA-EL4 cancer cells: 1.34
  H5+DAPI- OVA-EL4 cancer cells: 2.16
  H5-DAPI+ OVA-EL4 cancer cells: 0.07
OVA-EL4 cancer cells; 3 h, Data 3
  H5+DAPI+ OVA-EL4 cancer cells: 1.51
  H5+DAPI- OVA-EL4 cancer cells: 1.83
  H5-DAPI+ OVA-EL4 cancer cells: 0.06
OVA-EL4 cancer cells; 4 h, Data 1
  H5+DAPI+ OVA-EL4 cancer cells: 3.60
  H5+DAPI- OVA-EL4 cancer cells: 0.63
  H5-DAPI+ OVA-EL4 cancer cells: 0.09
OVA-EL4 cancer cells; 4 h, Data 2
  H5+DAPI+ OVA-EL4 cancer cells: 3.55
  H5+DAPI- OVA-EL4 cancer cells: 0.46
  H5-DAPI+ OVA-EL4 cancer cells: 0.05
OVA-EL4 cancer cells; 4 h, Data 3
  H5+DAPI+ OVA-EL4 cancer cells: 2.80
  H5+DAPI- OVA-EL4 cancer cells: 0.60
  H5-DAPI+ OVA-EL4 cancer cells: 0.026
OVA-EL4 cancer cells; 5 h, Data 1
  H5+DAPI+ OVA-EL4 cancer cells: 8.18
  H5+DAPI- OVA-EL4 cancer cells: 0.17
  H5-DAPI+ OVA-EL4 cancer cells: 0.053
OVA-EL4 cancer cells; 5 h, Data 2
  H5+DAPI+ OVA-EL4 cancer cells: 8.22
  H5+DAPI- OVA-EL4 cancer cells: 0.12
  H5-DAPI+ OVA-EL4 cancer cells: 0.10
OVA-EL4 cancer cells; 5 h, Data 3
  H5+DAPI+ OVA-EL4 cancer cells: 16.90
  H5+DAPI- OVA-EL4 cancer cells: 0.10
  H5-DAPI+ OVA-EL4 cancer cells: 0.14
OVA-EL4 cancer cells; 6 h, Data 1
  H5+DAPI+ OVA-EL4 cancer cells: 11.60
  H5+DAPI- OVA-EL4 cancer cells: 0.09
  H5-DAPI+ OVA-EL4 cancer cells: 0.10
OVA-EL4 cancer cells; 6 h, Data 2
  H5+DAPI+ OVA-EL4 cancer cells: 10.50
  H5+DAPI- OVA-EL4 cancer cells: 0.11
  H5-DAPI+ OVA-EL4 cancer cells: 0.10
OVA-EL4 cancer cells; 6 h, Data 3
  H5+DAPI+ OVA-EL4 cancer cells: 18.10
  H5+DAPI- OVA-EL4 cancer cells: 0.076
  H5-DAPI+ OVA-EL4 cancer cells: 0.07

Reference: article PMC9061857, “A fluorogenic probe for granzyme B enables in-biopsy evaluation and screening of response to anticancer immunotherapies” (Nature Communications, 2022)
